Test results as given in patent US5686486A, “4-hydroxy-benzopyran-2-ones and 4-hydroxy-cycloalkyl[b]pyran-2-ones useful to treat retroviral infections” (priority 1995, dated 1997).
Read-outs that look alike come from different tables or passages of the source.

Biological target: HIV-1 protease (Human immunodeficiency virus type 1 group M subtype B, UniProt P04585)
Assay: biochemical
Details: for IC50: HIV-1 Protease IC50; for inhibition at 0.123 µM: read-out: HIV-1 Protease % Inhib, dose 0.123 uM; for inhibition at 0.37 µM: read-out: HIV-1 Protease % Inhib, dose 0.370 uM
Procedure, shortened: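 Biotinylated, FITC-labeled peptide substrate (20 μl of 0.2 μM) incubated with HIV-1 protease (10 μl of 0.1 μM) and compound in 0.1 M sodium acetate pH 5.5, 1.0 M NaCl, 0.05% NP-40, 1 h, room temperature, dark. Streptavidin beads then capture uncleaved substrate; filtered labeled product read by fluorescence, giving percent inhibition.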

[1] = read-out: HIV-1 Protease % Inhib, dose 1.000 uM
[2] = read-out: HIV-1 Protease % Inhib, dose 10.000 uM
[3] = read-out: HIV-1 Protease % Inhib, dose 100.000 uM
[4] = read-out: HIV-1 Protease % Inhib, dose 1.100 uM
[5] = read-out: HIV-1 Protease % Inhib, dose 3.300 uM
[6] = read-out: HIV-1 Protease % Inhib, dose 30.000 uM
[7] = dose 1.100 uM, read-out: HIV-1 Protease % Inhib
[8] = dose 3.300 uM, read-out: HIV-1 Protease % Inhib
[9] = dose 10.000 uM, read-out: HIV-1 Protease % Inhib
[10] = dose 30.000 uM, read-out: HIV-1 Protease % Inhib

Compound: CC(O)CC(c1ccccc1)c1c(O)c2ccccc2oc1=O (centres unmarked) [Example 8, 4-Hydroxy-3-(3-hydroxy-1-phenylbutyl)-coumarin]
- IC50: 41.7 µM
- inhibition at 1 µM [1]: < 10%
- inhibition at 10 µM [2]: 23.7%
- inhibition at 100 µM [3]: 93.3%

Compound: CCCC(c1ccc(C)cc1)c1c(O)c2ccccc2oc1=O (centres unmarked) [Example 18, 4-Hydroxy-3-(1-(4-methylphenyl)-butyl)-coumarin]
- inhibition at 1 µM [1]: 13.4%
- inhibition at 10 µM [2]: 52.5%

Compound: CS(=O)(=O)Nc1cccc(C(c2c(O)c3c(oc2=O)CCCCCC3)C2CC2)c1 (centres unmarked) [Example 317, N-[3-[Cyclopropyl(5,6,7,8,9,10-hexahydro-4-hydroxy-2-oxo-2H-cycloocta[b]pyran-3-yl)methyl]phenyl]-methanesulfonamide]
- inhibition at 0.123 µM: 27.8%
- inhibition at 0.37 µM: 46.7%
- inhibition at 1.1 µM [4]: 81.7%
- inhibition at 3.3 µM [5]: 101%
- inhibition at 10 µM [2]: 102%
- inhibition at 30 µM [6]: 113%

Compound: COc1ccc(S(=O)(=O)Nc2cccc(C(c3c(O)c4c(oc3=O)CCCCCC4)C3CC3)c2)cc1OC (centres unmarked) [Example 335, N-[3-[Cyclopropyl(5,6,7,8,9,10-hexahydro-4-hydroxy-2-oxo-2H-cycloocta[b]pyran-3-yl)methyl]phenyl]-3,4-dimethoxy-benzenesulfonamide]
- inhibition at 0.123 µM: 48.7%
- inhibition at 0.37 µM: 82.9%
- inhibition at 1.1 µM [4]: 90.3%
- inhibition at 3.3 µM [5]: 96.8%
- inhibition at 10 µM [2]: 96.5%
- inhibition at 30 µM [6]: 106%

Compound: O=c1oc2c(c(O)c1C(c1cccc(NCc3ccccc3)c1)C1CC1)CCCCCC2 (centres unmarked) [Example 242, 3-[Cyclopropyl-[3-[(phenylmethyl)amino]phenyl]methyl]-5,6,7,8,9,10-hexahydro-4-hydroxy-2H-cycloocta[b]pyran-2-one]
- inhibition at 1.1 µM [7]: 13.8%
- inhibition at 3.3 µM [8]: 36%
- inhibition at 10 µM [9]: 65.3%
- inhibition at 30 µM [10]: 78.9%

Compound: CCCCC(=O)Nc1cccc(C(CC)c2c(O)c3ccccc3oc2=O)c1 (centres unmarked) [Example 44, Coumarin, 4-hydroxy-3-[1-[3-[(1-oxopentyl)amino]phenyl]propyl]-]
- inhibition at 1 µM [1]: < 10%
- inhibition at 10 µM [2]: < 10%
- inhibition at 100 µM [3]: 55.6%

Compound: CC(C)(c1ccccc1)c1c(O)c2ccccc2oc1=O [Example 39, 3-(α,α-dimethylbenzyl)4-hydroxy coumarin]
- IC50: 5 µM
- inhibition at 1 µM [1]: 13.8%
- inhibition at 10 µM [2]: 69.6%
- inhibition at 100 µM [3]: 82%

Compound: CCOc1ccc2c(O)c(C(CC)c3ccccc3)c(=O)oc2c1 (stereo not drawn) [Example 82, Coumarin, 7-ethoxy-3-(α-ethylbenzyl)-4-hydroxy-]
- IC50: 0.9 µM
- inhibition at 1 µM [1]: 30.9%
- inhibition at 10 µM [2]: 69.7%
- inhibition at 100 µM [3]: 89%

Compound: O=C(Nc1ccc(C(c2c(O)c3c(oc2=O)CCCCCC3)C2CC2)cc1)OCc1ccccc1 (centres unmarked) [Example 470, Carbamic acid, [4-[cyclopropyl (5,6,7,8,9,10-hexahydro-4-hydroxy-2-oxo-2H-cycloocta[b]pyran-3-yl)methyl]phenyl]-phenylmethyl ester]
- inhibition at 1.1 µM [7]: 16.1%
- inhibition at 3.3 µM [8]: 59.2%
- inhibition at 10 µM [9]: 102%
- inhibition at 30 µM [10]: 118%

Compound: O=C(C=Cc1ccccc1)Nc1cccc(C(c2c(O)c3c(oc2=O)CCCCCC3)C2CC2)c1 (centres unmarked) [Example 208]
- inhibition at 1.1 µM [7]: 22.9%
- inhibition at 3.3 µM [8]: 57.6%
- inhibition at 10 µM [9]: 76.8%
- inhibition at 30 µM [10]: 84.4%

Compound: CCCCS(=O)(=O)Nc1cccc(C(c2c(O)c3c(oc2=O)CCCCCC3)C2CC2)c1 (centres unmarked) [Example 326, N-[3-[Cyclopropyl(5,6,7,8,9,10-hexahydro-4-hydroxy-2-oxo-2H-cycloocta[b]pyran-3-yl)methyl]phenyl]-1-butanesulfonamide]
- inhibition at 0.123 µM: 51.6%
- inhibition at 0.37 µM: 92.6%
- inhibition at 1.1 µM [4]: 102%
- inhibition at 3.3 µM [5]: 106%
- inhibition at 10 µM [2]: 114%
- inhibition at 30 µM [6]: 121%

Compound: COC(=O)C(C(=O)OC)C(c1ccccc1)c1c(O)c2ccccc2oc1=O (centres unmarked) [Example 157, 2-((4-Hydroxy-2-oxo-2H-chromen-3-yl)-phenyl-methyl)-malonic acid dimethyl ester]
- inhibition at 1 µM [1]: < 10%
- inhibition at 10 µM [2]: < 10%
- inhibition at 100 µM [3]: 64%

Compound: CCC(c1cccc(NC(=O)CCCCc2ccccc2)c1)c1c(O)c2ccccc2oc1=O (centres unmarked) [Example 54, Coumarin, 4-hydroxy-3-[1-[3-[(1-oxo-5-phenylpentyl)amino]phenyl]propyl]-]
- inhibition at 1 µM [1]: < 10%

Compound: CCC(c1ccc(O)cc1)c1c(O)c2ccccc2oc1=O (centres unmarked) [Example 85, Coumarin, 4-hydroxy-3-[1-(4-hydroxyphenyl)propyl]-]
- inhibition at 1 µM [1]: < 10%
- inhibition at 10 µM [2]: 31.6%
- inhibition at 100 µM [3]: 100%

Compound: C=CCOc1ccccc1C(CC)c1c(O)c2ccccc2oc1=O (centres unmarked) [Example 69, 3-(1'-(2-Allyloxyphenyl)propyl)-4-hydroxycoumarin]
- inhibition at 1 µM [1]: < 10%
- inhibition at 10 µM [2]: 20.6%
- inhibition at 100 µM [3]: 92.2%

Compound: CC(C)CC(c1ccccc1)c1c(O)c2ccccc2oc1=O (centres unmarked) [Example 14, 4-Hydroxy-3-(3-methyl-1-phenylbutyl)-coumarin]
- inhibition at 1 µM [1]: 32.2%
- inhibition at 10 µM [2]: 64.6%
- inhibition at 100 µM [3]: 87.1%

Compound: CC(C)C(c1ccc(Br)cc1)c1c(O)c2ccccc2oc1=O (centres unmarked) [Example 12, 3-(1-(4-Bromophenyl)-2-methylpropyl)-4-hydroxycoumarin]
- IC50: 12.1 µM
- inhibition at 0.098 µM (read-out: HIV-1 Protease % Inhib, dose 0.098 uM): < 10%
- inhibition at 0.196 µM (read-out: HIV-1 Protease % Inhib, dose 0.196 uM): < 10%
- inhibition at 0.39 µM (read-out: HIV-1 Protease % Inhib, dose 0.390 uM): < 10%
- inhibition at 0.78 µM (read-out: HIV-1 Protease % Inhib, dose 0.780 uM): 14%
- inhibition at 1.56 µM (read-out: HIV-1 Protease % Inhib, dose 1.560 uM): 17.1%
- inhibition at 3.13 µM (read-out: HIV-1 Protease % Inhib, dose 3.130 uM): 25.4%
- inhibition at 6.25 µM (read-out: HIV-1 Protease % Inhib, dose 6.250 uM): 31.9%
- inhibition at 12.5 µM (read-out: HIV-1 Protease % Inhib, dose 12.500 uM): 53.8%
- inhibition at 25 µM (read-out: HIV-1 Protease % Inhib, dose 25.000 uM): 66.5%
- inhibition at 50 µM (read-out: HIV-1 Protease % Inhib, dose 50.000 uM): 74.7%
- inhibition at 100 µM [3]: 87.4%
- inhibition at 200 µM (read-out: HIV-1 Protease % Inhib, dose 200.000 uM): 87%

Compound: CCC(c1cccc(NC(=O)CCCc2ccccc2)c1)c1c(O)c2ccccc2oc1=O (centres unmarked) [Example 53, Coumarin, 4-hydroxy-3-[1-[3-[(i-oxo-4-phenylbutyl)amino]phenyl]propyl]-]
- inhibition at 1 µM [1]: < 10%
- inhibition at 10 µM [2]: < 10%
- inhibition at 100 µM [3]: 71.8%

Compound: CCC(c1cccc(NS(=O)(=O)c2ccc(C#N)cc2)c1)c1c(O)c2c(oc1=O)CCCCCC2 (centres unmarked) [Example 222, Benzenesulfonamide, 4-cyano-N-[3-[1-(5,6,7,8,9,10-hexahydro-4-hydroxy-2-oxo-2H-cycloocta[b]pyran-3-yl)propyl]phenyl]-]
- inhibition at 0.123 µM: 80.4%
- inhibition at 0.37 µM: 94.1%
- inhibition at 1.1 µM [4]: 103%
- inhibition at 3.3 µM [5]: 110%
- inhibition at 10 µM [2]: 111%
- inhibition at 30 µM [6]: 110%

Compound: CC(=O)Oc1ccc(C(C)(C)c2c(O)c3ccccc3oc2=O)cc1 [Example 150, Acetic acid 4-(1-(4-Hydroxy-2-oxo-2H-chromen-3-yl)-l-methyl-ethyl)-phenylester]
- inhibition at 1 µM [1]: < 10%
- inhibition at 10 µM [2]: 62.4%
- inhibition at 100 µM [3]: 93%

Compound: COc1ccc2c(O)c(C(C3CC3)C3CC3)c(=O)oc2c1 [Example 80, Coumarin, 3-[bis(cyclopropyl)methyl]-4-hydroxy-7-methoxy-]
- IC50: 8.5 µM
- inhibition at 1 µM [1]: < 10%
- inhibition at 10 µM [2]: 62.6%
- inhibition at 100 µM [3]: 102%

Compound: O=c1oc2ccccc2c(O)c1Cc1ccc2ccccc2c1 [Example 3, 4-Hydroxy-3-(2-naphthylmethyl)coumarin]
- inhibition at 1 µM (dose 1.000 uM, read-out: HIV-1 Protease % Inhib): < 10%
- inhibition at 10 µM [9]: < 10%
- inhibition at 100 µM (dose 100.000 uM, read-out: HIV-1 Protease % Inhib): 48.8%
